Data set [1] in a line: in vitro. The settings on record: human, TOX HELA CC50 (μM).
Method: Black 384-well clear-bottom microtiter plates (Corning, Amsterdam, The Netherlands) were filled via acoustic drop ejection using the echo liquid handler (Labcyte, Sunnyvale, Calif.). 200 nL of compound stock solutions (100% DMSO) were transferred to the assay plates. 9 serial 4-fold dilutions of compound were made, creating per quadrant the same compound concentration. The assay was initiated by adding 10 μL of culture medium to each well (RPMI medium without phenol red, 10% FBS-heat inactivated, 0.04% gentamycin (50 mg/mL). All addition steps are done by using a multidrop dispenser (Thermo Scientific, Erembodegem, Belgium). Next, rgRSV224 virus (MOI=1) diluted in culture medium was added to the plates. rgRSV224 virus is an engineered virus that includes an additional GFP gene (Hallak L K, Spillmann D, Collins P L, Peeples M E. Glycosaminoglycan sulfation requirements for respiratory syncytial virus infection; Journal of virology (2000), 74(22), 10508-13) and was in-licensed from the NIH (Bethesda, Md., USA). Finally, 20 μL of a HeLa cell suspension (3,000 cells/well) were plated. Medium, virus- and mock-infected controls were included in each test. The wells contain 0.05% DMSO per volume. Cells were incubated at 37° C. in a 5% CO2 atmosphere. Three days post-virus exposure, viral replication was quantified by measuring GFP expression in the cells by an in house developed MSM laser microscope (Tibotec, Beerse, Belgium). The EC50 was defined as the 50% inhibitory concentration for GFP expression. In parallel, compounds were incubated for three days in a set of white 384-well microtiter plates (Corning) and the cytotoxicity of compounds in HeLa cells was determined by measuring the ATP content of the cells using the ATPlite kit (Perkin Elmer, Zaventem, Belgium) according to the manufacturer's instructions. The CC50 was defined as the 50% concentration for cytotoxicity.
Data set [2] concerns rgRSV224 virus. As to the kind of experiment: Antiviral activity: rgRSV224 (GFP) replication in HeLa cells. The class given is cell-based, respiratory syncytial virus (RSV). The settings on record: human respiratory syncytial virus, HeLa, 72 h, read-out: RSV HELA EC50 (μM), rgRSV224 virus (MOI=1), HeLa cells, GFP expression three days post-virus exposure.
The nature of data set [3]: Pharmacokinetics after single intravenous administration in the fasted male Beagle dog. The class given is in vivo. The settings on record: intravenous administration at 1 mg/kg in dogs, first 8 hours after administration. Here is the method:
E.2 Pharmacokinetics after Single Intravenous Administration in the Fasted Male Beagle Dog
The test compound was dissolved in a 20% (w/v) hydroxypropyl-β-cyclodextrin (HP-beta-CD) solution at a final concentration of 2 mg/mL for the intravenous formulation. NaOH was added to the formulations to facilitate dissolution and after total dissolution the pH was adjusted with HCl to 8.4. The intravenous (IV) formulation was made isotonic with mannitol. Prior to dosing, all formulations were stored at room temperature and protected from light. The IV formulation was dosed in a cephalic vein at 0.5 mL/kg to obtain a final dose of 1 mg/kg.
Three male Beagle dogs, with a mean weight of 10.9±1.1 kg, were used. A complete concentration time profile was obtained from each individual animal. Prior to dosing, animals were fasted overnight. Their standard dry diet was returned to them at 2 hours post dose. Tap water was available ad libitum.
From each individual animal, blood samples were taken at 7 and 20 minutes, 1, 2, 4, 7, 24 and 48 hours after intravenous dose administration. […] Plasma samples were analysed using a qualified research LC-MS/MS method. The key analytical performance (linearity, upper and lower limit of quantification, accuracy and precision) of the method was reported together with the plasma concentrations. The lower limit of quantification (LLOQ) was 10.0 ng/mL. […]

Here are results for 16 compounds from US11339165B2, “Pyrazolopyrimidines having activity against the respiratory syncytial virus (RSV)” (priority 2017, dated 2022).

The CC50 is the concentration that lowers cell viability or growth by half. A higher CC50 goes with lower toxicity to the cells. What is called EC50 is the concentration that produces a half-maximal response. In data set [1], `C[C@@H]1c2ccccc2CCN1C(=O)c1cc(C2CC2)n2nc(-c3ccc(N4C[C@H](O)[C@@H](O)C4)cc3F)cc2n1` [Compound 102, (7-cyclopropyl-2-(4-((3S,4S)-3,4-dihydroxypyrrolidin-1-yl)-2-fluorophenyl)pyrazolo[1,5-a]pyrimidin-5-yl)((R)-1-methyl-3,4-dihydroisoquinolin-2(1H)-yl)methanone] came in with a CC50 at 3 days of 44.4 µM. The EC50 in data set [2] worked out at 0.026 µM. In addition, in data set [3], the plasma concentration profile entry was “does not show this rapid decline”.

By melting point is commonly meant the temperature of the solid-liquid transition. In the case of `C[C@@H]1c2ccccc2CCN1C(=O)c1cc(C2CC2)n2nc(-c3ccc(N4CC[C@@H](NS(C)(=O)=O)C4)cc3F)cc2n1` [Compound 11, N-[(3R)-1-(4-{7-Cyclopropyl-5-[(1R)-1-methyl-1,2,3,4-tetrahydroisoquinoline-2-carbonyl]pyrazolo[1,5-a]pyrimidin-2-yl}-3-fluorophenyl)pyrrolidin-3-yl]methane-sulfonamide], the melting point came to 159.35 °C. Further, the CC50 at 3 days in data set [1] was above 100 µM. In addition, the EC50 in data set [2] was 0.044 µM.

As for `C[C@@H]1c2ccccc2CCN1C(=O)c1cc(C2CC2)n2nc(-c3ccc(N4CC(CC(N)=O)C4)cc3F)cc2n1` [Compound 65, 2-[1-(4-{7-Cyclopropyl-5-[(1R)-1-methyl-1,2,3,4-tetrahydroisoquinoline-2-carbonyl]-pyrazolo[1,5-a]pyrimidin-2-yl}-3-fluorophenyl)azetidin-3-yl]acetamide], the melting point worked out at 211.64 °C. In data set [1], this compound displayed a CC50 at 3 days of 39.1 µM. For the same compound, in data set [2], the concentration for a half-maximal effect (EC50) worked out at 0.048 µM.

In the case of `C[C@@H]1c2ccccc2CCN1C(=O)c1cc(C2CC2)n2nc(-c3ccc(N4C[C@H](C(N)=O)C[C@@H]4C)cc3F)cc2n1` (single isomer, unassigned) [Compound 33, (3*R,5*S)-1-(4-{7-cyclopropyl-5-[(1R)-1-methyl-1,2,3,4-tetrahydroisoquinoline-2-carbonyl]pyrazolo[1,5-a]pyrimidin-2-yl}-3-fluorophenyl)-5-methylpyrrolidine-3-carboxamide], the melting point was found to be 292.7 °C. The CC50 at 3 days in data set [1] turned out to be 34.5 µM. Also, the concentration for a half-maximal effect (EC50) in data set [2] worked out at 0.043 µM.

`C[C@@H]1c2ccccc2CCN1C(=O)c1cc(C2CC2)n2nc(-c3cnc(N4CC[C@H](C(=O)NS(C)(=O)=O)C4)cc3F)cc2n1` [Compound 54, (3S)-1-(5-{7-Cyclopropyl-5-[(1R)-1-methyl-1,2,3,4-tetrahydroisoquinoline-2-carbonyl]-pyrazolo[1,5-a]pyrimidin-2-yl}-4-fluoropyridin-2-yl)-N-methanesulfonylpyrrolidine-3-carboxamide] came in with a melting point of 254.46 °C. The same compound came in with a CC50 at 3 days in data set [1] of 77.4 µM. Further, the EC50 in data set [2] came out at 0.192 µM.

`C[C@@H]1c2ccccc2CCN1C(=O)c1cc(C2CC2)n2nc(-c3cnc(N4CC[C@H](C(N)=O)C4)cc3F)cc2n1` [Compound 52, (3S)-1-(5-{7-Cyclopropyl-5-[(1R)-1-methyl-1,2,3,4-tetrahydroisoquinoline-2-carbonyl]-pyrazolo[1,5-a]pyrimidin-2-yl}-4-fluoropyridin-2-yl)pyrrolidine-3-carboxamide]: the melting point was found to be 246.17 °C. In data set [1], this compound yielded a CC50 at 3 days of 41.3 µM. In data set [2], the EC50 is 0.014 µM.

As to `C[C@@H]1c2ccccc2CCN1C(=O)c1cc(C2CC2)n2nc(-c3ccc(N4CC[C@@H](S(C)(=O)=O)C4)cc3F)cc2n1` [Compound 17, (1R)-2-(7-Cyclopropyl-2-{2-fluoro-4-[(3R)-3-methanesulfonylpyrrolidin-1-yl]phenyl}-pyrazolo[1,5-a]pyrimidine-5-carbonyl)-1-methyl-1,2,3,4-tetrahydroisoquinoline], the melting point came to 258.48 °C. Also, the CC50 at 3 days in data set [1] is above 100 µM. For the same compound, the EC50 in data set [2] was 0.05 µM.

For `C[C@@H]1c2ccccc2CCN1C(=O)c1cc(C2CC2)n2nc(-c3ccc(N4CC[C@H](NC(=O)C(F)(F)F)C4)cc3F)cc2n1` [Compound 76, N-[(3S)-1-(4-{7-Cyclopropyl-5-[(1R)-1-methyl-1,2,3,4-tetrahydroisoquinoline-2-carbonyl]pyrazolo[1,5-a]pyrimidin-2-yl}-3-fluorophenyl)pyrrolidin-3-yl]-2,2,2-trifluoroacetamide], the melting point was 221.2 °C. The compound also had a CC50 at 3 days in data set [1] above 100 µM. The EC50 in data set [2] was determined as 0.246 µM.

As to `C[C@@H]1c2ccccc2CCN1C(=O)c1cc(-c2ccccn2)n2nc(-c3ccc(N4CC[C@H](C(N)=O)C4)cc3F)cc2n1` [Compound 84, (3S)-1-(3-Fluoro-4-{5-[(1R)-1-methyl-1,2,3,4-tetrahydroisoquinoline-2-carbonyl]-7-(pyridin-2-yl)pyrazolo[1,5-a]pyrimidin-2-yl}phenyl)pyrrolidine-3-carboxamide], the melting point stood at 252.18 °C. Also, in data set [1], the CC50 at 3 days was 19 µM. Further, the EC50 in data set [2] came to 0.006 µM.

In turn, `C[C@@H]1c2ccccc2CCN1C(=O)c1cc(C2CC2)n2nc(-c3ccc(N4CCC(O)CC4)cc3F)cc2n1` [Compound 74, 1-(4-{7-Cyclopropyl-5-[(1R)-1-methyl-1,2,3,4-tetrahydroisoquinoline-2-carbonyl]-pyrazolo[1,5-a]pyrimidin-2-yl}-3-fluorophenyl)piperidin-4-ol] returned a melting point of 144.01 °C. For the same compound, the 50% cytotoxic concentration (CC50) at 3 days in data set [1] amounted to 48.1 µM. In addition, in data set [2], the EC50 is 0.076 µM.

Regarding `C[C@@H]1c2ccccc2CCN1C(=O)c1cc(C2CC2)n2nc(-c3ccc(N4CC[C@@H](C(N)=O)[C@@H]4C)cc3F)cc2n1` (single isomer, unassigned) [Compound 82, (2*S,3*R)-1-(4-{7-Cyclopropyl-5-[(1R)-1-methyl-1,2,3,4-tetrahydroisoquinoline-2-carbonyl]pyrazolo[1,5-a]pyrimidin-2-yl}-3-fluorophenyl)-2-methylpyrrolidine-3-carboxamide], the melting point came to 294.89 °C. The same compound had a CC50 at 3 days in data set [1] of 33.1 µM. The EC50 in data set [2] was 0.033 µM.

`COc1ccc(-c2cc(C(=O)N3CCc4ccccc4[C@H]3C)nc3cc(-c4ccc(N5CC[C@H](C(N)=O)C5)cc4F)nn23)cc1` [Compound 57, (3S)-1-{3-Fluoro-4-[7-(4-methoxyphenyl)-5-[(1R)-1-methyl-1,2,3,4-tetrahydro-isoquinoline-2-carbonyl]pyrazolo[1,5-a]pyrimidin-2-yl]phenyl}pyrrolidine-3-carboxamide]: the melting point stood at 216.34 °C. For the same compound, the half-maximal cytotoxic concentration (CC50) at 3 days in data set [1] is above 100 µM. Also, the EC50 in data set [2] is 0.023 µM.

Regarding `C[C@@H]1c2ccccc2CCN1C(=O)c1cc(C2CC2)n2nc(-c3ccc(N4CC[C@H](C(N)=O)C4)cc3F)cc2n1` [Compound 36, (3S)-1-(4-{7-Cyclopropyl-5-[(1R)-1-methyl-1,2,3,4-tetrahydroisoquinoline-2-carbonyl]pyrazolo[1,5-a]pyrimidin-2-yl}-3-fluorophenyl)pyrrolidine-3-carboxamide], the melting point was determined as 237.7 °C. This compound displayed a CC50 at 3 days in data set [1] of 29.3 µM. In data set [2], the EC50 was found to be 0.012 µM.

`C[C@@H]1c2ccsc2CCN1C(=O)c1cc(C2CC2)n2nc(-c3ccc(N4CC[C@H](CC(N)=O)C4)cc3F)cc2n1` (single isomer, unassigned) [Compound 42, 2-[(3R)-1-(4-{7-Cyclopropyl-5-[(4*R)-4-methyl-4,5,6,7-tetrahydro-thieno[3,2-c]pyridine-5-carbonyl]pyrazolo[1,5-a]pyrimidin-2-yl}-3-fluorophenyl)pyrrolidin-3-yl]acetamide] yielded a melting point of 206.84 °C. In addition, the CC50 at 3 days in data set [1] came out at 28.9 µM. For the same compound, in data set [2], the EC50 was 0.025 µM.

`C[C@@H]1c2ccccc2CCN1C(=O)c1cc(-c2ccc(C#N)cc2)n2nc(-c3ccc(N4CC[C@H](C(N)=O)C4)cc3F)cc2n1` [Compound 62, (3S)-1-{4-[7-(4-Cyanophenyl)-5-[(1R)-1-methyl-1,2,3,4-tetrahydroisoquinoline-2-carbonyl]pyrazolo[1,5-a]pyrimidin-2-yl]-3-fluorophenyl}pyrrolidine-3-carboxamide] registered a melting point of 173.36 °C. In addition, the CC50 at 3 days in data set [1] is above 100 µM. The EC50 in data set [2] came to 0.043 µM.

`C[C@@H]1c2ccccc2CCN1C(=O)c1cc(C2CC2)n2nc(-c3ccc(N4CC[C@@H](C(N)=O)[C@H]4C)cc3F)cc2n1` (single isomer, unassigned) [Compound 80, (2*R,3*R)-1-(4-{7-Cyclopropyl-5-[(1R)-1-methyl-1,2,3,4-tetrahydroisoquinoline-2-carbonyl]pyrazolo[1,5-a]pyrimidin-2-yl}-3-fluorophenyl)-2-methylpyrrolidine-3-carboxamide] had a melting point of 182.93 °C. The compound further had a half-maximal cytotoxic concentration (CC50) at 3 days in data set [1] of 35.9 µM. The EC50 in data set [2] is 0.091 µM.
